Results reported in the supplement of paper PMC11061612.

Assays:
[1] = system: TT (Thyroid Gland Carcinoma); assay: combination Emax (second highest fraction inhibited in the dose matrix, 72 h); higher = more inhibition; extreme values may be limits of the assay
Method in brief: (§1)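 Cell lines grown in DMEM/F12 or RPMI with 10% FBS were plated in 1536-well plates and held 24 hours at 37°C, 5% CO2 before 72 hours of exposure to two-drug dose matrices, with DMSO typically at 0.2%. CellTiter-Glo 2.0 luminescence gave viability, which was converted to inhibition. Vehicle wells were set to 0 and blank wells to 1. Combination Emax is the second-highest inhibition in the matrix, and Bliss excess is the observed combination effect minus the expected EA + EB − EA·EB, where EA and EB are the single-agent effects.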

[2] = system: FU97 (Gastric Carcinoma); assay: as above
Method in brief: as §1

[3] = system: VCaP (Prostate Carcinoma); assay: as above
Method in brief: as §1

[4] = system: CAPAN-2 (Pancreatic Carcinoma); assay: as above
Method in brief: as §1

[5] = system: ONS-76 (Other Solid Carcinomas); assay: as above
Method in brief: as §1

[6] = system: CCK-81 (Colorectal Carcinoma); assay: as above
Method in brief: as §1

[7] = system: KARPAS-422 (B-Cell Non-Hodgkin's Lymphoma); assay: as above
Method in brief: as §1

[8] = system: IGR-37 (Melanoma); assay: as above
Method in brief: as §1

[9] = system: BICR22 (Oral Cavity Carcinoma); assay: as above
Method in brief: as §1

[10] = system: PANC-10-05 (Pancreatic Carcinoma); assay: as above
Method in brief: as §1

[11] = system: U-2-OS (Osteosarcoma); assay: as above
Method in brief: as §1

[12] = system: NCI-H1666 (Lung Adenocarcinoma); assay: as above
Method in brief: as §1

[13] = system: COLO-320-HSR (Colorectal Carcinoma); assay: as above
Method in brief: as §1

[14] = system: ECC10 (Gastric Carcinoma); assay: as above
Method in brief: as §1

[15] = system: NCI-H2066 (Squamous Cell Lung Carcinoma); assay: as above
Method in brief: as §1

[16] = system: NCI-H1581 (Non-Small Cell Lung Carcinoma); assay: as above
Method in brief: as §1

[17] = system: NY (Osteosarcoma); assay: as above
Method in brief: as §1

[18] = system: NCI-H64 (Small Cell Lung Carcinoma); assay: as above
Method in brief: as §1

[19] = system: TT (Thyroid Gland Carcinoma); assay: Bliss excess, mean over the matrix (fraction); higher = more synergy
Method in brief: as §1

[20] = system: FU97 (Gastric Carcinoma); assay: as above
Method in brief: as §1

[21] = system: VCaP (Prostate Carcinoma); assay: as above
Method in brief: as §1

[22] = system: CAPAN-2 (Pancreatic Carcinoma); assay: as above
Method in brief: as §1

[23] = system: ONS-76 (Other Solid Carcinomas); assay: as above
Method in brief: as §1

[24] = system: CCK-81 (Colorectal Carcinoma); assay: as above
Method in brief: as §1

[25] = system: KARPAS-422 (B-Cell Non-Hodgkin's Lymphoma); assay: as above
Method in brief: as §1

[26] = system: IGR-37 (Melanoma); assay: as above
Method in brief: as §1

[27] = system: BICR22 (Oral Cavity Carcinoma); assay: as above
Method in brief: as §1

[28] = system: PANC-10-05 (Pancreatic Carcinoma); assay: as above
Method in brief: as §1

[29] = system: U-2-OS (Osteosarcoma); assay: as above
Method in brief: as §1

[30] = system: NCI-H1666 (Lung Adenocarcinoma); assay: as above
Method in brief: as §1

[31] = system: COLO-320-HSR (Colorectal Carcinoma); assay: as above
Method in brief: as §1

[32] = system: ECC10 (Gastric Carcinoma); assay: as above
Method in brief: as §1

[33] = system: NCI-H2066 (Squamous Cell Lung Carcinoma); assay: as above
Method in brief: as §1

[34] = system: NCI-H1581 (Non-Small Cell Lung Carcinoma); assay: as above
Method in brief: as §1

[35] = system: NY (Osteosarcoma); assay: as above
Method in brief: as §1

[36] = system: NCI-H64 (Small Cell Lung Carcinoma); assay: as above
Method in brief: as §1
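Wherever Bliss excess, mean over the matrix is given: after 72 h of two-drug dosing.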

Compound	combination Emax [1]	combination Emax [2]	combination Emax [3]	combination Emax [4]	combination Emax [5]	combination Emax [6]	combination Emax [7]	combination Emax [8]	combination Emax [9]	combination Emax [10]	combination Emax [11]	combination Emax [12]	combination Emax [13]	combination Emax [14]	combination Emax [15]	combination Emax [16]	combination Emax [17]	combination Emax [18]	Bliss excess [19]	Bliss excess [20]	Bliss excess [21]	Bliss excess [22]	Bliss excess [23]	Bliss excess [24]	Bliss excess [25]	Bliss excess [26]	Bliss excess [27]	Bliss excess [28]	Bliss excess [29]	Bliss excess [30]	Bliss excess [31]	Bliss excess [32]	Bliss excess [33]	Bliss excess [34]	Bliss excess [35]	Bliss excess [36]
Cc1c2c(nn1C)CSCc1cc(n(C)n1)CSc1cc(c3ccccc3c1)OCCCc1c(C(=O)O)n(C)c3c-2c(Cl)ccc13 [AZD5991] + Nc1ccn([C@@H]2O[C@H](CO)[C@@H](O)C2(F)F)c(=O)n1 [Gemcitabine] (first compound max 1 µM, 7x7, partner max 0.3 µM)	0.405	0.232	0.977	0.101	0.499	0.942	0.979	0.79	0.957	0.472	0.387	0.473	0.944	0.935	0.184	0.998	0.88	0.37	-0.0048	0.0193	0.0667	-0.035	0.0088	0.0013	-0.0219	0.011	-0.0254	-0.0263	-0.0017	-0.0299	-0.0386	0.0593	-0.0415	0.0459	-0.0564	0.0292
Cc1c2c(nn1C)CSCc1cc(n(C)n1)CSc1cc(c3ccccc3c1)OCCCc1c(C(=O)O)n(C)c3c-2c(Cl)ccc13 [AZD5991] + CC(=O)O[C@H]1C(=O)[C@@]2(C)[C@H]([C@H](OC(=O)c3ccccc3)[C@]3(O)C[C@H](OC(=O)[C@H](O)[C@@H](NC(=O)c4ccccc4)c4ccccc4)C(C)=C1C3(C)C)[C@]1(OC(C)=O)CO[C@@H]1C[C@@H]2O [Paclitaxel] (first compound max 1 µM, 7x7, partner max 3 µM)	0.26	0.257	0.977	0.144	0.644	0.989	0.996	0.885	0.98	0.569	0.735	0.563	0.991	0.942	0.589	1	0.963	0.719	-0.0423	-0.0142	0.0074	0.0086	-0.0383	-0.0396	0.0084	0.0439	0.0021	0.0368	-0.0291	-0.0239	-0.0443	-0.0567	-0.027	0.0114	0.0268	0.0573
CN(CCO)CC[C@H](CSc1ccccc1)Nc1ccc(S(=O)(=O)NC(=O)c2ccc(N3CCC([C@@H](O)c4ccccc4-c4ccc(Cl)cc4)CC3)cc2)cc1S(=O)(=O)C(F)(F)F [AZD4320] + CC(=O)O[C@H]1C(=O)[C@@]2(C)[C@H]([C@H](OC(=O)c3ccccc3)[C@]3(O)C[C@H](OC(=O)[C@H](O)[C@@H](NC(=O)c4ccccc4)c4ccccc4)C(C)=C1C3(C)C)[C@]1(OC(C)=O)CO[C@@H]1C[C@@H]2O [Paclitaxel] (first compound max 1 µM, 7x7, partner max 3 µM)	0.665	0.433	0.881	0.853	0.919	1	0.999	0.938	0.981	0.64	0.922	0.841	0.791	1	0.856	0.99	0.981	1	0.184	0.101	0.0175	0.0494	0.0661	-0.0433	0.141	-0.0174	-0.0024	-0.0275	0.0272	0.112	0.0041	0.0272	0.124	0.0126	-0.0067	0.237
O=C(c1cc(Cc2n[nH]c(=O)c3ccccc23)ccc1F)N1CCN(C(=O)C2CC2)CC1 [Olaparib] + COc1nnc2ccc(N3CCC(c4ccc(OCCN5CCN(C)C(=O)[C@H]5C)cc4)CC3)nn12 [AZD5153] (first compound max 10 µM, 7x7, partner max 1 µM)	0.48	0.762	0.707	0.186	0.474	0.756	0.66	0.58	0.0626	0.401	0.285	0.409	0.373	0.786	0.286	0.506	0.473	0.239	-0.0615	-0.0372	-0.082	-0.0267	-0.0463	-0.0643	-0.0132	-0.0984	-0.0477	-0.0072	-0.0312	-0.0544	-0.0311	-0.0196	-0.0865	0.0078	-0.0877	-0.0338
